{"source": "EPA's ToxValDB 9.5 (doi:10.2903/j.efsa.2017.4874)", "key": {"[1]": {"test_system": "Aphidius rhopalosiphi", "assay": "LR50; higher = less toxic", "settings": "not reported; mortality"}, "[2]": {"test_system": "Folsomia candida", "settings": "chronic/long-term; mortality"}, "[3]": {"test_system": "Anas platyrhynchos", "settings": "short-term; oral; feed; mortality"}, "[4]": {"test_system": "Daphnia magna", "settings": "chronic/long-term; duration: 21 days; reproduction"}, "[5]": {"test_system": "Rattus norvegicus", "settings": "oral"}, "[6]": {"test_system": "Oncorhynchus mykiss", "settings": "acute; duration: 96 hours; mortality"}, "[7]": {"test_system": "Danio rerio", "settings": "subchronic; duration: 35 days; reproduction"}, "[8]": {"test_system": "Oryctolagus sp.", "settings": "developmental; development"}, "[9]": {"test_system": "Apis mellifera", "settings": "acute, mortality"}, "[10]": {"test_system": "Colinus virginianus", "settings": "for LD50: acute, oral, mortality"}, "[11]": {"test_system": "Mus musculus", "settings": "chronic"}, "[12]": {"test_system": "Tagia sp.", "settings": "chronic/long-term; growth"}}, "data": [{"smiles": "O=C(Nc1ccccc1)Nc1ccnc(Cl)c1", "note": "[Forchlorfenuron]", "values": [{"measurement": "LR50", "setting": "[1]", "result": "> 10", "unit": "g/ha"}, {"measurement": "NOEC", "setting": "[2]", "result": 3.72, "unit": "mg/kg"}, {"measurement": "LD50", "setting": "[3]", "result": "> 3120", "unit": "mg/kg-day"}, {"measurement": "NOEC", "setting": "[4]", "result": 1.96, "unit": "mg/L"}, {"measurement": "LD50", "setting": "[5]; acute, mortality", "result": 4920, "unit": "mg/kg-day"}, {"measurement": "NOAEL", "setting": "[5]; reproduction developmental, diet, body weight", "result": 11, "unit": "mg/kg-day"}, {"measurement": "NOAEL", "setting": "[5]; subchronic, duration: 90 days, organ weight", "result": 16.2, "unit": "mg/kg-day"}, {"measurement": "LC50", "setting": "[6]", "result": 1.93, "unit": "µg/mL"}, {"measurement": "NOEC", "setting": "[7]", "result": 1.01, "unit": "mg/L"}, {"measurement": "NOAEL", "setting": "[8]", "result": 50, "unit": "mg/kg-day"}, {"measurement": "LD50", "setting": "[9]; dermal", "result": "> 30", "unit": "µg/piece"}, {"measurement": "LD50", "setting": "[9]; oral, unspecified", "result": "> 34.1", "unit": "µg/piece"}, {"measurement": "LD50", "setting": "[10]; diet", "result": "> 3120", "unit": "mg/kg-day"}, {"measurement": "LD50", "setting": "[10]", "result": "> 2250", "unit": "mg/kg-day"}, {"measurement": "NOEC", "setting": "[10]; reproduction developmental", "result": 88.4, "unit": "mg/kg-day"}, {"measurement": "NOAEL", "setting": "[11]; duration: 24 months, histopathology: neoplastic", "result": 5, "unit": "mg/kg-day"}, {"measurement": "NOAEL", "setting": "[11]; histopathology: nonneoplastic", "result": 4.9, "unit": "mg/kg-day"}, {"measurement": "NOEC", "setting": "[12]", "result": 0.3, "unit": "mg/kg"}]}]}
